Experimental data reported in PMC11855478, “Bicyclic N,S-Acetals Containing Fused Cysteine-Amide System as New Heterocyclic Class Targeting Human Farnesyltransferase (FTase-h)” (International Journal of Molecular Sciences, 2025).

Experiments:
[1] = test system: HCT-116 (Colon Cancer); experiment: NCI one dose, HCT-116; type: cell-based, human; details: HCT-116, 1.00E-5 Molar one dose
Method: (§1) 3.4. Cell Proliferation Assay
(§2) Selected compounds were tested on a panel of 60 human cancer cell lines at the National Cancer Institute (NCI), Germantown, MD, USA. The cytotoxicity studies were conducted using a 48 h exposure protocol using the sulfo-rhodamine B assay.

[2] = test system: NCI-H23 (Non-Small Cell Lung Cancer); experiment: NCI one dose, NCI-H23; type: cell-based, human; details: NCI-H23, 1.00E-5 Molar one dose
Method: as §1, §2

[3] = test system: SK-MEL-5 (Melanoma); experiment: NCI one dose, SK-MEL-5; type: cell-based, human; details: SK-MEL-5, 1.00E-5 Molar one dose
Method: as §1, §2

[4] = test system: RXF 393 (Renal Cancer); experiment: NCI one dose, RXF 393; type: cell-based, human; details: RXF 393, 1.00E-5 Molar one dose
Method: as §1, §2

[5] = test system: K-562 leukaemia cells; experiment: NCI one dose, K-562; type: cell-based, human; details: K-562, 1.00E-5 Molar one dose
Method: as §1, §2

[6] = test system: SNB-75 (CNS Cancer); experiment: NCI one dose, SNB-75; type: cell-based, human; details: SNB-75, 1.00E-5 Molar one dose
Method: as §1, §2

[7] = test system: UO-31 renal cancer cells; experiment: NCI one dose, UO-31; type: cell-based, human; details: UO-31, 1.00E-5 Molar one dose
Method: as §1, §2

[8] = test system: SF-539 (CNS Cancer); experiment: NCI one dose, SF-539; type: cell-based, human; details: SF-539, 1.00E-5 Molar one dose
Method: as §1, §2

[9] = test system: HOP-92 (Non-Small Cell Lung Cancer); experiment: NCI one dose, HOP-92; type: cell-based, human; details: HOP-92, 1.00E-5 Molar one dose
Method: as §1, §2

[10] = test system: MCF7 (Breast Cancer); experiment: NCI one dose, MCF7; type: cell-based, human; details: MCF7, 1.00E-5 Molar one dose
Method: as §1, §2

[11] = test system: NCI/ADR-RES (Ovarian Cancer); experiment: NCI one dose, NCI/ADR-RES; type: cell-based, human; details: 1.00E-5 Molar one dose
Method: as §1, §2

[12] = test system: MDA-MB-435 (Melanoma); experiment: NCI one dose, MDA-MB-435; type: cell-based, human; details: MDA-MB-435, 1.00E-5 Molar one dose
Method: as §1, §2

[13] = test system: OVCAR-8 (Ovarian Cancer); experiment: NCI one dose, OVCAR-8; type: cell-based, human; details: OVCAR-8, 1.00E-5 Molar one dose
Method: as §1, §2

[14] = test system: OVCAR-4 (Ovarian Cancer); experiment: NCI one dose, OVCAR-4; type: cell-based, human; details: OVCAR-4, 1.00E-5 Molar one dose
Method: as §1, §2

[15] = test system: LOX IMVI (Melanoma); experiment: NCI one dose, LOX IMVI; type: cell-based, human; details: 1.00E-5 Molar one dose
Method: as §1, §2

[16] = test system: CCRF-CEM (Leukemia); experiment: NCI one dose, CCRF-CEM; type: cell-based, human; details: 1.00E-5 Molar one dose
Method: as §1, §2

[17] = test system: panel of 60 human cancer cell lines; experiment: NCI 60 cell panel one dose screen (whole panel); type: cell-based; design: Delta (One Dose Mean Graph): unit not given here; details: 1.00E-5 Molar one dose; for Range (One Dose Mean Graph): in % (unit assumed); for Mean Growth Percent: mean over tested cell lines
Method: as §1
Selected compounds were tested on a panel of 60 human cancer cell lines at the National Cancer Institute (NCI), Germantown, MD, USA. The cytotoxicity studies were conducted using a 48 h exposure protocol using the sulfo-rhodamine B assay. […]
X. NCI One Dose Mean Graph of sulfides 4a(A -J) and 4b(A-J)
The entire series of sulfides regrouping twenty synthesized FTI-candidates (4aA-J, 4bA-J) were selected by the National Cancer Institute (NCI) for evaluation of their antiproliferative activity against 60 cancer cell lines (see the followings twenty pages for full evaluation reports). […]
inhibiting 36% of the NCI-H522 cells. Such difference between IC50 on human FTase in the nanomolar range and IC50 on cancer cell growth in the micromolar range is characteristic to potent FTIs and was reported previously on different series of compounds (see for example ref erence in the references part […]
Of interest, none of the tested compounds at a high single dose (10 µM) in the full NCI 60 cell panel has shown a cytotoxic profile. […]
inhibitory potential on FTase raise good hope for further investigation of these series as agents fighting

[18] = test system: A549/ATCC (Non-Small Cell Lung Cancer); experiment: NCI one dose, A549/ATCC; type: cell-based, human; details: 1.00E-5 Molar one dose
Method: as §1, §2

[19] = test system: OVCAR-3 (Ovarian Cancer); experiment: NCI one dose, OVCAR-3; type: cell-based, human; details: OVCAR-3, 1.00E-5 Molar one dose
Method: as §1, §2

[20] = test system: EKVX (Non-Small Cell Lung Cancer); experiment: NCI one dose, EKVX; type: cell-based, human; details: 1.00E-5 Molar one dose
Method: as §1, §2

[21] = biological target: human farnesyltransferase (FTase) (Homo sapiens, UniProt P49354+P49356); experiment: FTase inhibitory assay (fluorescence, Dansyl-GCVLS); type: biochemical; details: for IC50: human FTase in vitro; for % FTI: inhibition of human FTase at 100 μM of tested compound, mean of two experiments
Method: With 40 new products in hand, the determination of their inhibitory activity on human farnesyl-transferase (FTase) in vitro was first undertaken. Dimethyl sulfoxide (DMSO) was used as the negative control, and Chaetomellic acid A was the positive reference in all assays. At the outset, and in order to select only significant results, products with an inhibitory power greater than 60% at an initial screening concentration of 100 µM were retained for the determination of their IC50 and, therefore, for further discussion. Moreover, given the number of products tested, they are grouped into three subfamilies on the basis of the degree of the sulphur atom oxidation (series of sulfides, series of sulfoxides, and series of sulfones), and the results obtained are grouped in Table 1, Table 2 and Table 3.
3.3. FTase Inhibitory Assay
Assays were realized in 96-well plates, prepared with a Biomek NKMC and a Biomek 3000 from Beckman Coulter, and read on a Wallac Victor fluorimeter from PerkinElmer. Per well, 20 µL of farnesyl pyrophosphate (10 μM) was added to 180 µL of a solution containing 2 µL of varied concentrations of potential inhibitors (dissolved in DMSO) and 178 μL of a solution composed of 10 μL of partially purified recombinant human FTase (15 µg mL^−1) and 1.0 µL of Dansyl-GCVLS peptide (in the following buffer: 5.6 mM DTT, 5.6 mM MgCl2, 12 μM ZnCl2 and 0.2% (w/v) octyl-β-D-glucopyranoside, 52 mM Tris/HCl, pH 7.5). Fluorescence was recorded for 15 min (0.7 s per well, 20 repeats) at 30 °C with an excitation filter at 340 nm and an emission filter of 486 nm. Each measurement was reproduced twice, in duplicate. The kinetic experiments were realized under the same conditions, either with FPP as varied substrate with a constant concentration of Dns-GCVLS of 2.5 μM or with Dns-GCVLS as varied substrate with a constant concentration of FPP of 10 μM. Non-linear regressions were performed using the Excel software.

| SMILES | Growth Percent [1] [%] | Growth Percent [2] [%] | Growth Percent [3] [%] | Growth Percent [4] [%] | Growth Percent [5] [%] | Growth Percent [6] [%] | Growth Percent [7] [%] | Growth Percent [8] [%] | Growth Percent [9] [%] | Growth Percent [10] [%] | Growth Percent [11] [%] | Growth Percent [12] [%] | Growth Percent [13] [%] | Growth Percent [14] [%] | Growth Percent [15] [%] | Growth Percent [16] [%] | Delta (One Dose Mean Graph) [17] | Range (One Dose Mean Graph) [17] | Mean Growth Percent [17] [%] | Growth Percent [18] [%] | further results |
| --- | --- | --- | --- | --- | --- | --- | --- | --- | --- | --- | --- | --- | --- | --- | --- | --- | --- | --- | --- | --- | --- |
| O=C(NCc1ccccc1)[C@@H]1CS[C@H]2c3ccccc3C(=O)N12 [4aA] | 87.66 | 100.85 | 114.63 | 114.31 | 101.44 | 84.04 | 91.66 | 102.43 | 87.72 | 87.71 | 99.86 | 106.84 | 101.18 | 111.39 | 97.27 | 96.52 | 20.43 | 35.31 | 99.75 | 97.86 | Growth Percent [19]: 112.79%; Growth Percent [20]: 105.39% |
| O=C(NCc1ccccc1C(F)(F)F)[C@@H]1CS[C@H]2c3ccccc3C(=O)N12 [4aC] | 87.63 | 105.15 | 107.31 | 115.46 | 94.12 | 85.21 | 74.84 | 95.88 | 77.56 | 90.35 | 99.79 | 102.87 | 94.34 | 105.74 | 102.58 | 93.25 | 21.44 | 40.62 | 96.28 | 90.42 | IC50 [21]: 0.594 µM; % FTI [21]: 62%; Growth Percent [19]: 106.48%; Growth Percent [20]: 99.35% |
| O=C(NCc1cccc(C(F)(F)F)c1)[C@@H]1CS[C@H]2c3ccccc3C(=O)N12 [4aD] | 91.63 | 100.33 | 110.95 | 114.41 | 89.33 | 75.92 | 78.58 | 101.49 | 79.43 | 91.11 | 92.62 | 107.10 | 94.59 | 105.79 | 100.26 | 99.20 | 22.37 | 46.64 | 97.10 | 94.49 | % FTI [21]: 37%; Growth Percent [19]: 104.21%; Growth Percent [20]: 103.29% |
| COc1ccc(CNC(=O)[C@@H]2CS[C@H]3c4ccccc4C(=O)N23)cc1 [4aF] | 101.21 | 108.19 | 110.95 | 117.51 | 99.90 | 114.38 | 75.18 | 107.51 | 86.03 | 85.78 | 103.64 | 114.08 | 99.52 | 110.64 | 100.31 | 97.27 | 26.11 | 46.82 | 101.29 | 95.62 | IC50 [21]: 2.73 µM; % FTI [21]: 80%; Growth Percent [19]: 106.29%; Growth Percent [20]: 106.31% |
| O=C(NCc1ccc(Cl)cc1Cl)[C@@H]1CS[C@H]2c3ccccc3C(=O)N12 [4aH] | 83.47 | 99.59 | 109.91 | 105.25 | 91.56 | 89.63 | 83.58 | 106.56 | 75.56 | 94.95 | 92.00 | 100.39 | 97.57 | 106.54 | 100.51 | 92.66 | 24.18 | 40.81 | 97.15 | 97.39 | % FTI [21]: 52%; Growth Percent [19]: 107.79%; Growth Percent [20]: 100.24% |
| COc1cc(CNC(=O)[C@@H]2CS[C@H]3c4ccccc4C(=O)N23)cc(OC)c1OC [4aJ] | 92.64 | 100.31 | 107.99 | 110.79 | 90.55 | 86.61 | 84.08 | 89.92 | 93.68 | 104.04 | 95.00 | 106.49 | 103.46 | 104.76 | 99.61 | 96.01 | 15.66 | 30.62 | 98.66 | 98.15 | % FTI [21]: 23%; Growth Percent [19]: 105.82%; Growth Percent [20]: 101.46% |
